Starred links: 1 amine or outer side, 2 acyl side, 3 side chain; linkers in the order of their positions; H or OH if unused. Positions of bridges follow the written chain, without caps; N, C: chain ends. Residues, ends and D or L forms follow the SMILES beside them. *: point of attachment. C18 diacid = O=C(O)CCCCCCCCCCCCCCCCC(=O)*; γGlu = O=C(O)[C@H](CCC(=O)[*:2])N[*:1]; AEEA = NCCOCCOCC(=O)O

From US20240209028A1, “CNP COMPOUNDS” (priority 2022, published 2024) come the findings set out here.

Data set [1] in a line: CNP local tolerance study in LYD pigs (s.c. injection, histopathology). It is filed as in vivo, domestic LYD pig. The conditions noted are these: for assessment for human subcutaneous administration: based on pig local tolerance. In a few lines:
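Domestic pigs dosed s.c. mid-back, 100 or 200 μl at approx. 4400 μM, in phosphate pH 6.5 or acetate pH 4.0 buffers with glycerol or propylene glycol; saline as negative control. Sites excised 4 or 5 days post injection, H&E sections graded on 5-level scale; necrosis used as marker.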

The subject of data set [2] is mouse metatarsal bones. Description: Mouse metatarsal bone dissection and culture (ex vivo bone growth). The conditions noted are these: 100 nM, n=8. Type of data set: cell-based, mouse (NMRI). The procedure:
The purpose of this study was to evaluate bone growth after administration of CNP compounds in an ex vivo mouse model.
Procedure: One-day old mouse pups (NMRI, Javier Labs France) were euthanised prior to dissection. All applicable international and internal Novo Nordisk guidelines for care and use of animals were followed. The three middle metatarsal bones were dissected out from each hind paw. The dissected bones were placed in 24-well cell culture plates and cultured in 400 μl a-Minimum Essential Media supplemented with 0.2% BSA, 1% Pen/Strep at 37° C. and 5% CO2. The bones from all animals were randomised into a control group and six CNP compound-treated groups (100 nM; n=8). The medium was changed every 2-3 days. All compounds were formulated according to the principles described in General Methods of Preparation—Method G. Compounds 9435 and 9483 were formulated in A) 5 mM sodium acetate, 250 mM glycerol, pH 4.0 while compounds 9384, 9407, 9480 and 9482 were formulated in B) 8 mM sodium phosphate, 250 mM glycerol, pH 7.4.
Digital pictures were captured on day 0, 4, 7, 11, and 14 using a digital camera attached to a Nikon microscope. The length of each metatarsal bone was measured using ImageJ software and increase in bone length was expressed as percentage change from the length measured at the day of dissection (Mean (SD)).
In Table 27, metatarsal bones were isolated from mice and cultured for up to 14 days. Length was measured every 3-4 days throughout the study and expressed as percentage change from day 0 (Mean (SD)). Statistically significant differences are indicated compared to control group (two-way ANOVA).

Data set [3] is described as follows: Local tolerance of CNP compounds in rats (s.c. injection, histopathology). It is filed as in vivo, Sprague Dawley rat. As for the experimental part: The purpose of this study was to evaluate the local tissue reaction to subcutaneous injection of CNP compounds in rats.
Procedure: The CNP compounds were formulated according to the principles described in General Methods of Preparation-Method G. Each Sprague Dawley rat (male, 10-11 weeks of age at arrival, Janvier, France) was dosed s.c. with 250 or 350 uL of the same compound (formulation concentration of 1000 nmol/mL) 120 h prior to tissue collection resulting in a total of two injections for each animal (Table 15). Injection site (flank or neck) was alternated across animals within each group and time point.
Animals had access to tap water and food (Altromin 1324) ad libitum. Group size was n=3 for vehicles and positive control, and n=4 for test compounds. Vehicles and compounds were formulated in either 5 mM sodium acetate, 250 mM glycerol, pH 4.0 or 8 mM sodium phosphate, 250 mM glycerol, pH 7.4 as shown in Table 16.
The animals were anesthetized with isoflurane. Via an electric shaving machine, a squared area of fur (2 cm×2 cm) was removed either from the rats' neck or flank area). For dosing, a new injection needle (25G canula, 1 ml syringe) was placed in the middle of the square border closest to the animal's head and the needle was inserted into the skin from the border towards the center of the square. […] On the day of tissue collection, the rats were deeply anaesthetized with isoflurane and euthanized by exsanguination. The injection sites were inspected and scored with regards to pathological lesions. The injection sites were evaluated, and any changes were noted (location, colour, shape and size), and sampled for histology preparation.
The injection sites were removed and fixed in 4% phosphate buffered neutral formaldehyde in sealed plastic containers.
Each injection site was subsequently cut into three sections 0.8 cm, 1.0 cm and 1.2 cm from the square border where the injection needle was placed, and, respectively, these sections represented the injection sites and the adjacent tissue. The tissue was processed, embedded in paraffin and cut in 2-4 μm thin sections, stained with the haematoxylin and eosin (H&E), and evaluated microscopically with a light microscope. Histopathological changes were graded on a 5-level scale (Minimal (Min), Mild (Mil), Moderate (Mod), Marked (Mar) and Severe (Sev)).

Setting [4] is: 5 days after subcutaneous injections in the pig.

`CC[C@H](C)[C@@H]1NC(=O)[C@H](CCCNC(=N)N)NC(=O)[C@H](CC(=O)O)NC(=O)[C@H](CC(C)C)NC(=O)[C@@H]2CCCN2C(=O)[C@H](CC(C)C)NC(=O)CNC(=O)[C@H](Cc2ccccc2)NC(=O)[C@@H](NC(=O)CNC(=O)[C@H](CO)NC(=O)[C@H](CO)NC(=O)[C@H](CC(C)C)NC(=O)CNC(=O)[C@H](CCCCN)NC(=O)[C@H](CCCCN)NC(=O)[C@H](CCC(N)=O)NC(=O)[C@H](C)NC(=O)CNC(=O)[C@H](CCCCN)NC(=O)[C@H](Cc2ccc(O)cc2)NC(=O)[C@H](CCCCN)NC(=O)[C@H](CCCNC(=N)N)NC(=O)[C@H](C)NC(=O)[C@H](CCC(N)=O)NC(=O)[C@@H]2CCCN2C(=O)[C@H](Cc2c[nH]cn2)NC(=O)[C@H](CCC(=O)O)NC(=O)[C@H](CCC(N)=O)NC(=O)CC[C@H](NC(=O)CC[C@H](NC(=O)CC[C@H](NC(=O)CC[C@H](NC(=O)CC[C@H](NC(=O)CCCCCCCCCCCCCCCCC(=O)O)C(=O)O)C(=O)O)C(=O)O)C(=O)O)C(=O)O)CSSC[C@@H](C(=O)O)NC(=O)CNC(=O)[C@H](CC(C)C)NC(=O)CNC(=O)[C@H](CO)NC(=O)[C@H](CC(C)C)NC(=O)[C@H](CO)NC(=O)CNC1=O` [compound 9482] ({C18 diacid-γGlu-γGlu-γGlu-γGlu-γGlu}-QEHPQARKYKGAQKKGLSSGCFGLPLDRIGSLSGLGC-OH; disulfide 21-37): the local subcutaneous necrosis entry in data set [1] (setting [4]) is “no”. In data set [1], the “assessment for human subcutaneous administration” value (“assessment” for short) is reported as “acceptable”. Also, the “Increase in bone length, mean (%) change from day 0” value (“Increase … (%) change from day 0” below) is given as 37.7% in data set [2] (day 4 in culture), 47.1% in data set [2] (day 7 in culture), 54.4% in data set [2] (day 11 in culture) and 57.5% in data set [2] (day 14 in culture).

As for `CC[C@H](C)[C@@H]1NC(=O)[C@H](CCCNC(=N)N)NC(=O)[C@H](CCC(=O)O)NC(=O)[C@H](CC(C)C)NC(=O)[C@@H]2CCCN2C(=O)[C@H](CC(C)C)NC(=O)CNC(=O)[C@H](Cc2ccccc2)NC(=O)[C@@H](NC(=O)CNC(=O)[C@H](CO)NC(=O)[C@H](CO)NC(=O)[C@H](CC(C)C)NC(=O)CNC(=O)[C@H](CCCCN)NC(=O)[C@H](CCCCN)NC(=O)[C@H](CCC(N)=O)NC(=O)[C@H](C)NC(=O)CNC(=O)[C@H](CCCCN)NC(=O)[C@H](Cc2ccc(O)cc2)NC(=O)[C@H](CCCCN)NC(=O)[C@H](CCCNC(=N)N)NC(=O)[C@H](C)NC(=O)[C@H](CCC(N)=O)NC(=O)[C@@H]2CCCN2C(=O)[C@H](Cc2c[nH]cn2)NC(=O)[C@H](CCC(=O)O)NC(=O)[C@H](CCC(N)=O)NC(=O)CC[C@H](NC(=O)CC[C@H](NC(=O)CC[C@H](NC(=O)CC[C@H](NC(=O)CCCCCCCCCCCCCCCCC(=O)O)C(=O)O)C(=O)O)C(=O)O)C(=O)O)CSSC[C@@H](C(=O)O)NC(=O)CNC(=O)[C@H](CC(C)C)NC(=O)CNC(=O)[C@H](CO)NC(=O)[C@H](CC(C)C)NC(=O)[C@H](CO)NC(=O)CNC1=O` [compound 9483] ({C18 diacid-γGlu-γGlu-γGlu-γGlu}-QEHPQARKYKGAQKKGLSSGCFGLPLERIGSLSGLGC-OH; disulfide 21-37), in data set [1] (pig, in vivo, sc), the local subcutaneous necrosis entry is given as “no to moderate”. The “Increase … (%) change from day 0” value was found to be 30.2% in data set [2] (day 4 in culture), 39.5% in data set [2] (day 7 in culture), 49.7% in data set [2] (day 11 in culture) and 51.5% in data set [2] (day 14 in culture).

For the molecule `CC[C@H](C)[C@@H]1NC(=O)[C@H](CCCNC(=N)N)NC(=O)[C@H](CC(=O)O)NC(=O)[C@H](CC(C)C)NC(=O)[C@@H]2CCCN2C(=O)[C@H](CC(C)C)NC(=O)CNC(=O)[C@H](Cc2ccccc2)NC(=O)[C@@H](NC(=O)CNC(=O)[C@H](CCC(N)=O)NC(=O)[C@H](CO)NC(=O)CNC(=O)CNC(=O)[C@H](CCCCN)NC(=O)[C@H](CCCCN)NC(=O)[C@H](CCC(N)=O)NC(=O)[C@H](C)NC(=O)CNC(=O)[C@H](CCCCN)NC(=O)[C@H](Cc2ccc(O)cc2)NC(=O)COCCOCCNC(=O)COCCOCCNC(=O)COCCOCCNC(=O)COCCOCCNC(=O)CC[C@H](NC(=O)CC[C@H](NC(=O)CCCCCCCCCCCCCCCCC(=O)O)C(=O)O)C(=O)O)CSSC[C@@H](C(=O)O)NC(=O)CNC(=O)[C@H](CC(C)C)NC(=O)CNC(=O)[C@H](CO)NC(=O)[C@H](CC(C)C)NC(=O)[C@H](CO)NC(=O)CNC1=O` [compound 9435] ({C18 diacid-γGlu-γGlu-AEEA-AEEA-AEEA-AEEA}-YKGAQKKGGSQGCFGLPLDRIGSLSGLGC-OH; disulfide 13-29; C-terminus assumed), in data set [1] (setting [4]), the local subcutaneous necrosis entry is “minimal to mild”. The “assessment” value in data set [1] is recorded as “acceptable”. Further, the “Increase … (%) change from day 0” value stood at 36.2% in data set [2] (day 4 in culture), 47.3% in data set [2] (day 7 in culture), 53.9% in data set [2] (day 11 in culture) and 59.2% in data set [2] (day 14 in culture).

In the case of `CC[C@H](C)[C@@H]1NC(=O)[C@H](CCCNC(=N)N)NC(=O)[C@H](CC(=O)O)NC(=O)[C@H](CC(C)C)NC(=O)[C@@H]2CCCN2C(=O)[C@H](CC(C)C)NC(=O)CNC(=O)[C@H](Cc2ccccc2)NC(=O)[C@@H](NC(=O)CNC(=O)[C@H](CCCCN)NC(=O)[C@H](CO)NC(=O)[C@@H](NC(=O)CNC(=O)[C@@H](NC(=O)[C@H](Cc2c[nH]cn2)NC(=O)[C@H](CCC(N)=O)NC(=O)[C@H](C)NC(=O)CNC(=O)[C@H](Cc2c[nH]cn2)NC(=O)[C@H](Cc2ccc(O)cc2)NC(=O)[C@H](CCCCN)NC(=O)[C@H](CCCNC(=N)N)NC(=O)[C@H](C)NC(=O)COCCOCCNC(=O)COCCOCCNC(=O)CC[C@H](NC(=O)CC[C@H](NC(=O)CC[C@H](NC(=O)CCCCCCCCCCCCCCCCC(=O)O)C(=O)O)C(=O)O)C(=O)O)[C@@H](C)O)C(C)C)CSSC[C@@H](C(=O)O)NC(=O)CNC(=O)[C@H](CC(C)C)NC(=O)CNC(=O)[C@H](CO)NC(=O)[C@H](CC(C)C)NC(=O)[C@H](CO)NC(=O)CNC1=O` [compound 1420] ({C18 diacid-γGlu-γGlu-γGlu-AEEA-AEEA}-ARKYHGAQHTGVSKGCFGLPLDRIGSLSGLGC-OH; disulfide 16-32), the local subcutaneous necrosis result in data set [3] (5 days after subcutaneous injections in the rat) is recorded as “no or mild”. Besides, the “assessment” value in data set [3] (based on rat local tolerance) is “acceptable”.

Turning to `CC[C@H](C)[C@@H]1NC(=O)[C@H](CCCNC(=N)N)NC(=O)[C@H](CC(=O)O)NC(=O)[C@H](CC(C)C)NC(=O)[C@@H]2CCCN2C(=O)[C@H](CC(C)C)NC(=O)CNC(=O)[C@H](Cc2ccccc2)NC(=O)[C@@H](NC(=O)CNC(=O)[C@H](CCC(N)=O)NC(=O)[C@H](CO)NC(=O)[C@H](CC(C)C)NC(=O)CNC(=O)[C@H](CCCCN)NC(=O)[C@H](CCCCN)NC(=O)[C@H](CCC(N)=O)NC(=O)[C@H](C)NC(=O)CNC(=O)[C@H](CCCCN)NC(=O)[C@H](Cc2ccc(O)cc2)NC(=O)COCCOCCNC(=O)COCCOCCNC(=O)COCCOCCNC(=O)COCCOCCNC(=O)CC[C@H](NC(=O)CC[C@H](NC(=O)CC[C@H](NC(=O)CCCCCCCCCCCCCCCCC(=O)O)C(=O)O)C(=O)O)C(=O)O)CSSC[C@@H](C(=O)O)NC(=O)CNC(=O)[C@H](CC(C)C)NC(=O)CNC(=O)[C@H](CO)NC(=O)[C@H](CC(C)C)NC(=O)[C@H](CO)NC(=O)CNC1=O` [compound 9480] ({C18 diacid-γGlu-γGlu-γGlu-AEEA-AEEA-AEEA-AEEA}-YKGAQKKGLSQGCFGLPLDRIGSLSGLGC-OH; disulfide 13-29), the local subcutaneous necrosis entry in data set [1] (setting [4]) was “no”. The “assessment” value in data set [1] was “acceptable”. For the same molecule, the “Increase … (%) change from day 0” value stood at 33.1% in data set [2] (day 4 in culture), 43.9% in data set [2] (day 7 in culture), 49.2% in data set [2] (day 11 in culture) and 52.1% in data set [2] (day 14 in culture).
